Assay results: ChEMBL document CHEMBL1671660, “Efficacy of iclaprim against wild-type and thymidine kinase-deficient methicillin-resistant Staphylococcus aureus isolates in an in vitro fibrin clot model” (Antimicrob Agents Chemother, 2009)
Values after ≈ are worked out from the molar mass of the structure shown. Active and inactive are the calls of the source. The rule behind the calls is not given here.

Tests used:
Staphylococcus aureus [1] = assay: Bactericidal activity against methicillin-resistant Staphylococcus aureus AW6 infected in in vitro rat fibrin clot model assessed as reduction in bacterial colony at 40 ug/ml after 48 hrs; format: functional, organism-based
Staphylococcus aureus [2] = assay: Bactericidal activity against thymidine kinase-deficient methicillin-resistant Staphylococcus aureus AH1252 infected in in vitro rat fibrin clot model assessed as reduction in bacterial colony at 40 ug/ml after 48 hrs; format: functional, organism-based
Staphylococcus aureus [3] = assay: Bacteriostatic activity against methicillin-resistant Staphylococcus aureus AW6 infected in in vitro human fibrin clot model assessed as reduction in bacterial colony at 40 ug/ml after 24 hrs; format: functional, organism-based
Staphylococcus aureus [4] = assay: Bactericidal activity against thymidine kinase-deficient methicillin-resistant Staphylococcus aureus AH1252 infected in in vitro rat fibrin clot model assessed as reduction in bacterial colony at 40 ug/ml after 24 hrs; format: functional, organism-based
Staphylococcus aureus [5] = assay: Bactericidal activity against methicillin-resistant Staphylococcus aureus AW6 at 40 ug/ml by time kill analysis in presence of 50% rat serum; format: functional, organism-based
Staphylococcus aureus [6] = assay: Bactericidal activity against methicillin-resistant Staphylococcus aureus AW6 at 40 ug/ml by time kill analysis in presence of 50% human serum; format: functional, organism-based
Staphylococcus aureus [7] = assay: Bactericidal activity against thymidine kinase-deficient methicillin-resistant Staphylococcus aureus AH1252 at 40 ug/ml by time kill analysis in presence of 50% rat serum; format: functional, organism-based
Staphylococcus aureus [8] = assay: Bactericidal activity against thymidine kinase-deficient methicillin-resistant Staphylococcus aureus AH1252 at 40 ug/ml by time kill analysis in presence of 50% human serum; format: functional, organism-based
Staphylococcus aureus [9] = assay: Bactericidal activity against thymidine kinase-deficient methicillin-resistant Staphylococcus aureus AH1252 infected in in vitro rat fibrin clot model assessed as reduction in bacterial colony at 3.5 ug/ml after 48 hrs; format: functional, organism-based
Staphylococcus aureus [10] = assay: Bactericidal activity against methicillin-resistant Staphylococcus aureus AW6 infected in in vitro human fibrin clot model assessed as log reduction in bacterial colony at 3.5 ug/ml after 24 hrs; format: functional
Staphylococcus aureus [11] = assay: Bactericidal activity against thymidine kinase-deficient methicillin-resistant Staphylococcus aureus AH1252 infected in in vitro human fibrin clot model assessed as log reduction in bacterial colony at 3.5 ug/ml after 24 hrs; format: functional
[12] = Plasma protein binding in human; format: ADME, cell-free; details: read-out: PPB (converted)
Staphylococcus aureus [13] = assay: Bactericidal activity against methicillin-resistant Staphylococcus aureus AW6 at 3.5 ug/ml by time kill analysis in presence of 50% human serum and 1 ug/ml thymidine; format: functional, organism-based
Staphylococcus aureus [14] = assay: Antimicrobial activity against thymidine kinase-deficient methicillin-resistant Staphylococcus aureus AH1252 grown on CAMHB media after 24 hrs by broth microdilution method in presence of 50% human serum and 1 ug/ml thymidine; format: functional; details: AH1252, 24 h
Staphylococcus aureus [15] = assay: Bactericidal activity against methicillin-resistant Staphylococcus aureus AW6 at 3.5 ug/ml by time kill analysis in presence of 50% rat serum and 1 ug/ml thymidine; format: functional, organism-based
Staphylococcus aureus [16] = assay: Antimicrobial activity against methicillin-resistant Staphylococcus aureus AW6 grown on CAMHB media after 24 hrs by broth microdilution method; format: functional; details: AW6, 24 h
Staphylococcus aureus [17] = assay: Antimicrobial activity against methicillin-resistant Staphylococcus aureus AW6 grown on CAMHB media after 24 hrs by broth microdilution method in presence of 0.2 U/ml thymidine phosphorylase; format: functional; details: AW6, 24 h
Staphylococcus aureus [18] = assay: Antimicrobial activity against methicillin-resistant Staphylococcus aureus AW6 grown on CAMHB media after 24 hrs by broth microdilution method in presence of 50% rat serum; format: functional; details: AW6, 24 h
Staphylococcus aureus [19] = assay: Antimicrobial activity against methicillin-resistant Staphylococcus aureus AW6 grown on CAMHB media after 24 hrs by broth microdilution method in presence of 50% rat serum and 0.2 U/ml thymidine phosphorylase; format: functional; details: AW6, 24 h
Staphylococcus aureus [20] = assay: Antimicrobial activity against methicillin-resistant Staphylococcus aureus AW6 grown on CAMHB media after 24 hrs by broth microdilution method in presence of protein depleted rat serum; format: functional; details: AW6, 24 h
Staphylococcus aureus [21] = assay: Antimicrobial activity against methicillin-resistant Staphylococcus aureus AW6 grown on CAMHB media after 24 hrs by broth microdilution method in presence of 50% human serum; format: functional; details: AW6, 24 h
Staphylococcus aureus [22] = assay: Antimicrobial activity against methicillin-resistant Staphylococcus aureus AW6 grown on CAMHB media after 24 hrs by broth microdilution method in presence of 50% human serum and 0.2 U/ml thymidine phosphorylase; format: functional; details: AW6, 24 h
Staphylococcus aureus [23] = assay: Antimicrobial activity against methicillin-resistant Staphylococcus aureus AW6 grown on CAMHB media after 24 hrs by broth microdilution method in presence of protein depleted human serum; format: functional; details: AW6, 24 h
Staphylococcus aureus [24] = assay: Antimicrobial activity against thymidine kinase-deficient methicillin-resistant Staphylococcus aureus AH1252 grown on CAMHB media after 24 hrs by broth microdilution method; format: functional; details: AH1252, 24 h
Staphylococcus aureus [25] = assay: Antimicrobial activity against thymidine kinase-deficient methicillin-resistant Staphylococcus aureus AH1252 grown on CAMHB media after 24 hrs by broth microdilution method in presence of 0.2 U/ml thymidine phosphorylase; format: functional; details: AH1252, 24 h
Staphylococcus aureus [26] = assay: Antimicrobial activity against thymidine kinase-deficient methicillin-resistant Staphylococcus aureus AH1252 grown on CAMHB media after 24 hrs by broth microdilution method in presence of 50% rat serum; format: functional; details: AH1252, 24 h
Staphylococcus aureus [27] = assay: Antimicrobial activity against thymidine kinase-deficient methicillin-resistant Staphylococcus aureus AH1252 grown on CAMHB media after 24 hrs by broth microdilution method in presence of 50% rat serum and 0.2 U/ml thymidine phosphorylase; format: functional; details: AH1252, 24 h
Staphylococcus aureus [28] = assay: Antimicrobial activity against thymidine kinase-deficient methicillin-resistant Staphylococcus aureus AH1252 grown on CAMHB media after 24 hrs by broth microdilution method in presence of protein depleted rat serum; format: functional; details: AH1252, 24 h
Staphylococcus aureus [29] = assay: Antimicrobial activity against thymidine kinase-deficient methicillin-resistant Staphylococcus aureus AH1252 grown on CAMHB media after 24 hrs by broth microdilution method in presence of 50% human serum; format: functional; details: AH1252, 24 h
Staphylococcus aureus [30] = assay: Antimicrobial activity against thymidine kinase-deficient methicillin-resistant Staphylococcus aureus AH1252 grown on CAMHB media after 24 hrs by broth microdilution method in presence of 50% human serum and 0.2 U/ml thymidine phosphorylase; format: functional; details: AH1252, 24 h
Staphylococcus aureus [31] = assay: Antimicrobial activity against thymidine kinase-deficient methicillin-resistant Staphylococcus aureus AH1252 grown on CAMHB media after 24 hrs by broth microdilution method in presence of protein depleted human serum; format: functional; details: AH1252, 24 h
[32] = Protein binding in human serum; format: ADME, cell-free; details: read-out: PB (converted)
[33] = Protein binding in rat serum; format: ADME, cell-free; details: read-out: PB (converted)
Staphylococcus aureus [34] = assay: Antimicrobial activity against methicillin-resistant Staphylococcus aureus AW6 grown on CAMHB media after 24 hrs by broth microdilution method in presence of 50% human serum and 1 ug/ml thymidine; format: functional; details: AW6, 24 h
Staphylococcus aureus [35] = assay: […] activity against methicillin-resistant Staphylococcus aureus AW6 assessed as loss of bacterial cell viability at 3.5 ug/ml by time kill analysis in presence of 50% rat serum; format: functional
Staphylococcus aureus [36] = assay: Bactericidal activity against thymidine kinase-deficient methicillin-resistant Staphylococcus aureus AH1252 assessed as loss of bacterial cell viability at 3.5 ug/ml by time kill analysis in presence of 50% rat serum; format: functional, organism-based
Staphylococcus aureus [37] = assay: […] activity against methicillin-resistant Staphylococcus aureus AW6 assessed as loss of bacterial cell viability at 3.5 ug/ml measured within 8 hrs by time kill analysis in presence of 50% human serum; format: functional
Staphylococcus aureus [38] = assay: Bactericidal activity against thymidine kinase-deficient methicillin-resistant Staphylococcus aureus AH1252 assessed as loss of bacterial cell viability at 3.5 ug/ml measured within 8 hrs by time kill analysis in presence of 50% human serum; format: functional
Staphylococcus aureus [39] = assay: Bactericidal activity against methicillin-resistant Staphylococcus aureus AW6 at 3.5 ug/ml by time kill analysis in presence of 50% rat serum and 0.2 U/ml thymidine phosphorylase; format: functional, organism-based
Staphylococcus aureus [40] = assay: Bacteriostatic activity against methicillin-resistant Staphylococcus aureus AW6 infected in in vitro rat fibrin clot model assessed as reduction in bacterial colony at 3.5 ug/ml after 48 hrs; format: functional, organism-based

With `CN[C@H](CC(C)C)C(=O)N[C@H]1C(=O)N[C@@H](CC(N)=O)C(=O)N[C@H]2C(=O)N[C@H]3C(=O)N[C@H](C(=O)N[C@H](C(=O)O)c4cc(O)cc(O)c4-c4cc3ccc4O)[C@H](O)c3ccc(c(Cl)c3)Oc3cc2cc(c3O[C@@H]2O[C@H](CO)[C@@H](O)[C@H](O)[C@H]2O[C@H]2C[C@](C)(N)[C@H](O)[C@H](C)O2)Oc2ccc(cc2Cl)[C@H]1O` the Activity (Staphylococcus aureus [1]) was “Active”, the Activity (Staphylococcus aureus [2]) was “Active” and the Activity (Staphylococcus aureus [3]) was “Active”. For the same compound, the Activity (Staphylococcus aureus [4]) was “Active”, the Activity (Staphylococcus aureus [5]) was “Active” and the Activity (Staphylococcus aureus [6]) was “Active”. The Activity (Staphylococcus aureus [7]) was “Active” and the Activity (Staphylococcus aureus [8]) was “Active”.

With `COc1cc(Cc2cnc(N)nc2N)c2c(c1OC)OC(C1CC1)C=C2` (stereo not given) [ICLAPRIM] the Activity (Staphylococcus aureus [9]) was “Active”, the log10CFU/ml (Staphylococcus aureus [10]) was “>=3” and the log10CFU/ml (Staphylococcus aureus [11]) was “>=3”. The fraction unbound [12] was 0.07, the Activity (Staphylococcus aureus [13]) was “inactive” and the MIC (Staphylococcus aureus [14]) was 0.03 mg/L. For the same compound, the Activity (Staphylococcus aureus [15]) was “inactive”, the MIC (Staphylococcus aureus [16]) was 0.06 mg/L (≈ 0.169 µM) and the MIC (Staphylococcus aureus [17]) was 0.03 mg/L. The MIC (Staphylococcus aureus [18]) was > 2 mg/L, the MIC (Staphylococcus aureus [19]) was 0.06 mg/L and the MIC (Staphylococcus aureus [20]) was > 2 mg/L. For the same compound, the MIC (Staphylococcus aureus [21]) was 0.12 mg/L, the MIC (Staphylococcus aureus [22]) was 0.2 mg/L and the MIC (Staphylococcus aureus [23]) was 0.03 mg/L. The MIC (Staphylococcus aureus [24]) was 0.03 mg/L (≈ 0.0846 µM), the MIC (Staphylococcus aureus [25]) was 0.03 mg/L and the MIC (Staphylococcus aureus [26]) was 0.03 mg/L. For the same compound, the MIC (Staphylococcus aureus [27]) was 0.03 mg/L, the MIC (Staphylococcus aureus [28]) was 0.06 mg/L and the MIC (Staphylococcus aureus [29]) was 0.06 mg/L. For the same compound, the MIC (Staphylococcus aureus [30]) was 0.06 mg/L, the MIC (Staphylococcus aureus [31]) was 0.03 mg/L and the fraction unbound [32] was 0.05. For the same compound, the fraction unbound [33] was 0.1, the MIC (Staphylococcus aureus [34]) was > 2 mg/L and the log10CFU/ml (Staphylococcus aureus [35]) was “>=3”. The Activity (Staphylococcus aureus [36]) was “Active”, the log10CFU/ml (Staphylococcus aureus [37]) was “>=3” and the log10CFU/ml (Staphylococcus aureus [38]) was “>=3”. The Activity (Staphylococcus aureus [39]) was “Active” and the Activity (Staphylococcus aureus [40]) was “Active”.
